Laboratory results reported in patent publication US7977372B2, “Ortho aminoamides for the treatment of cancer” (Hoffmann-La Roche Inc., priority 2009, dated 2011).

Tests used:
[1] = system: SMMC-7721 liver cancer cells; test: Growth inhibition of cancer cell lines (MTS / WST assay), SMMC-7721; assay type: cell-based; settings: for IC90: read-out: SMMC GI90
Method: (§1) The novel compounds of the present invention were tested for their ability to inhibit growth of various cancer cell lines using in vitro growth inhibition assays described below.
(§2) Cells were seeded in 96-well culture plates (200 microliters/well at different seeding concentrations depending on cell type) and incubated overnight at 37 degrees Celsius in 5% CO2. After adding compound dilutions to the cells (DMSO concentration kept below 0.5%), the cells were incubated at 37 degrees Celsius in 5% CO2 for 72 hours. The effects on proliferation were determined by addition of MTS reagent (Promega) according to the manufacturer's instruction, followed by incubation for 2 hours at 37 degrees Celsius in 5% CO2, and finally recording the absorbance at 490 nm using an ELISA plate reader.
(§3) Similar to MTS assay except that the developer is the CCK-8 reagent (Dojindo) and the plate reader is set to 450 nm absorbance.
(§4) GI50 and GI90 values against SGC-7901 gastric cancer cells and SMMC-7721 liver cancer cells for specific representative compounds can be found in Table 19.

[2] = system: SGC-7901 gastric cancer cells; test: Growth inhibition of cancer cell lines (MTS / WST assay), SGC-7901; assay type: cell-based; settings: for IC90: read-out: SGC GI90
Method: as §1, §2, §3, §4

[3] = system: histone deacetylase (HeLa nuclear extract); test: HeLa extract HDAC fluorometric assay; assay type: biochemical; settings: compound at 30 micromolar; relative to SNDX-275
Method: Novel compounds were tested for their ability to inhibit histone deacetylase using an in vitro deacetylation assay. The enzyme source for this assay was HeLa nuclear extract. The substrate consisted of a commercial product containing an acetylated lysine side chain (both HeLa extract and substrate are available commercially from BIOMOL Research Laboratories, Inc., Plymouth Meeting, Pa.). After deacetylation of the substrate by incubation with HeLa nuclear extract, subsequent exposure to a developing reagent produces a fluorophore that is directly proportional to the level of deacetylation. Using the substrate concentration at the Km for the HeLa nuclear extract, the deacetylation assay was performed in the presence of novel compounds at 30 micromolar and the percent enzyme inhibition relative to a known reference HDAC inhibitor (SNDX-275) was determined. […] Inhibitory activity for specific representative compounds can be found in Table 19.

GI50 ([1]; Homo sapiens, SMMC-7721, 72 h) [nM]	IC90 ([1]; Homo sapiens, SMMC-7721, 72 h) [nM]	GI50 ([2]; Homo sapiens, SGC-7901, 72 h) [nM]	IC90 ([2]; Homo sapiens, SGC-7901, 72 h) [nM]	HD RP30 (relative inhibitory potency compared with SNDX-275) [3]	GI50 ([1]; 72 hours) [nM]	SMMC GI90 ([1]; 72 hours) [nM]	GI50 ([2]; 72 hours) [nM]	SGC GI90 ([2]; 72 hours) [nM]	Compound
800	2520	400	1210	1.48	–	–	–	–	CCN1CC(C(=O)Nc2ccc(Cl)cc2)C(c2ccc(/C=C/C(=O)Nc3ccccc3N)cc2)C1 (stereo not shown) [Example 21-6]
570	1600	280	1120	1.61	–	–	–	–	Cc1cc(NC(=O)C2CN(C)CC2c2ccc(/C=C/C(=O)Nc3ccccc3N)cc2)ccc1F (stereo not shown) [Example 5-27]
1340	3320	600	2950	1.47	–	–	–	–	COCCN1CC(C(=O)Nc2ccc(Cl)cc2)C(c2ccc(/C=C/C(=O)Nc3ccccc3N)cc2)C1 (stereo not shown) [Example 21-15]
750	1870	410	1170	1.36	–	–	–	–	Nc1ccccc1NC(=O)/C=C/c1ccc(C2CN(C3CCOCC3)CC2C(=O)Nc2ccc(Cl)cc2)cc1 (stereo not shown) [Example 16-2]
1200	3400	470	2400	1.84	–	–	–	–	CN1CC(C(=O)Nc2ccc(F)cc2)C(c2ccc(/C=C/C(=O)Nc3ccccc3N)cc2F)C1 (stereo not shown) [Example 85-4]
760	2090	540	1380	1.48	–	–	–	–	CC(C)(O)CN1CC(C(=O)Nc2ccc(Cl)cc2)C(c2ccc(/C=C/C(=O)Nc3ccccc3N)cc2)C1 (stereo not shown) [Example 31-8]
710	2420	410	2040	1.58	–	–	–	–	CN1CC(C(=O)Nc2ccccc2)C(c2ccc(/C=C/C(=O)Nc3ccccc3N)cc2)C1 (stereo not shown) [Example 5-32]
640	1390	320	1040	1.65	–	–	–	–	Cc1cc(NC(=O)C2CN(C)CC2c2ccc(/C=C/C(=O)Nc3ccccc3N)cc2)ccc1Cl (stereo not shown) [Example 5-29]
670	1750	490	1790	1.63	–	–	–	–	Cc1ccc(NC(=O)C2CN(C)CC2c2ccc(/C=C/C(=O)Nc3ccccc3N)cc2)cc1 (stereo not shown) [Example 5-19]
650	1840	310	1080	1.70	–	–	–	–	CC(C)(C)N1CC(C(=O)Nc2ccc(F)cc2)C(c2ccc(/C=C/C(=O)Nc3ccccc3N)cc2)C1 (stereo not shown) [Example 36-5]
780	3960	310	1140	1.95	–	–	–	–	CN1C[C@@H](C(=O)Nc2ccc(F)cc2)[C@H](c2ccc(/C=C/C(=O)Nc3ccccc3N)cc2)C1 [Example 5-8]
640	1810	370	1710	1.70	–	–	–	–	CN1CC(c2ccc(/C=C/C(=O)Nc3ccccc3N)cc2)C(c2nc3cc(Cl)ccc3[nH]2)C1 (stereo not shown) [Example 11-4]
660	1980	380	1130	1.73	–	–	–	–	CN1C[C@@H](C(=O)Nc2ccc(Cl)cc2)[C@H](c2ccc(/C=C/C(=O)Nc3ccccc3N)cc2)C1 [Example 5-2]
870	2210	420	1620	1.49	–	–	–	–	COc1ccc(NC(=O)C2CN(C)CC2c2ccc(/C=C/C(=O)Nc3ccccc3N)cc2)cc1 (stereo not shown) [Example 5-33]
710	2340	340	1560	1.97	–	–	–	–	CN1CC(C(=O)Nc2ccc(F)c(Cl)c2)C(c2ccc(/C=C/C(=O)Nc3ccccc3N)cc2)C1 (stereo not shown) [Example 5-30]
720	2020	290	1240	1.51	–	–	–	–	CC(C)N1CC(C(=O)Nc2ccc(F)cc2)C(c2ccc(/C=C/C(=O)Nc3ccccc3N)cc2)C1 (stereo not shown) [Example 16-15]
700	1620	340	890	2.03	–	–	–	–	CC(C)N1CC(C(=O)Nc2ccc(Br)cc2)C(c2ccc(/C=C/C(=O)Nc3ccccc3N)cc2)C1 (stereo not shown) [Example 16-16]
640	1530	290	1040	1.38	–	–	–	–	CC(C)(CO)N1CC(C(=O)Nc2ccc(Cl)cc2)C(c2ccc(/C=C/C(=O)Nc3ccccc3N)cc2)C1 (racemic) [Example 26, rac-(trans-3,4)-4-{4-[2-(2-Amino-phenylcarbamoyl)-vinyl]-phenyl}-1-(2-hydroxy-1,1-dimethyl-ethyl)-pyrrolidine-3-carboxylic acid (4-chloro-phenyl)-amide]
1440	4520	490	2010	1.36	–	–	–	–	CN1CC(C(=O)Nc2ccc(F)cc2)C(c2ccc(/C=C/C(=O)Nc3ccccc3N)nc2)C1 (stereo not shown) [Example 73-2]
900	2450	440	1890	1.53	–	–	–	–	CC(C)N1CC(C(=O)Nc2ccc(Cl)cc2)C(c2ccc(/C=C/C(=O)Nc3ccccc3N)cc2)C1 (stereo not shown) [Example 16-17]
770	1620	500	1300	1.62	–	–	–	–	CN1CC(C(=O)Nc2ccc(Br)cc2)C(c2ccc(/C=C/C(=O)Nc3ccccc3N)cc2)C1 (stereo not shown) [Example 5-20]
960	3290	490	1530	1.75	–	–	–	–	CC(C)(C)N1CC(C(=O)Nc2ccc(Cl)cc2)C(c2ccc(/C=C/C(=O)Nc3ccccc3N)cc2)C1 (racemic) [Example 36, rac-(trans-3,4)-4-{4-[2-(2-Amino-phenylcarbamoyl)-vinyl]-phenyl}-1-tert-butyl-pyrrolidine-3-carboxylic acid (4-chloro-phenyl)-amide]
680	2200	320	1620	1.62	–	–	–	–	CN1CC(c2ccc(/C=C/C(=O)Nc3ccccc3N)cc2)C(c2nc3ccccc3[nH]2)C1 (stereo not shown) [Example 11-3]
910	2630	420	1380	1.09	–	–	–	–	Nc1ccccc1NC(=O)/C=C/c1ccc(C2CN(CCF)CC2C(=O)Nc2ccc(Cl)cc2)cc1 (racemic) [Example 21, rac-(trans-3,4)-4-{4-[2-(2-Amino-phenylcarbamoyl)-vinyl]-phenyl}-1-(2-fluoro-ethyl)-pyrrolidine-3-carboxylic acid (4-chloro-phenyl)-amide]
760	2010	310	1730	1.70	–	–	–	–	Cc1cccc(NC(=O)C2CN(C)CC2c2ccc(/C=C/C(=O)Nc3ccccc3N)cc2)c1 (stereo not shown) [Example 5-28]
650	1950	390	1700	1.61	–	–	–	–	CN1CC(C(=O)Nc2ccc(F)cc2)C(c2ccc(/C=C/C(=O)Nc3ccccc3N)cc2)C1 (racemic) [Example 5, rac-(trans-3,4)-4-{4-[2-(2-Amino-phenylcarbamoyl)-vinyl]-phenyl}-1-methyl-pyrrolidine-3-carboxylic acid (4-fluoro-phenyl)-amide]
700	1690	420	1990	1.64	–	–	–	–	CN1CC(c2ccc(/C=C/C(=O)Nc3ccccc3N)cc2)C(c2ncc(-c3ccccc3)[nH]2)C1 (stereo not shown) [Example 11-2]
–	–	–	–	1.90	830	2960	450	1230	Nc1ccccc1NC(=O)/C=C/c1ccc(C2CN(C3CCOCC3)CC2C(=O)Nc2ccc(Cl)cc2)cc1 (stereo not shown) [Example 16-20]
920	3040	350	1080	1.79	–	–	–	–	CN1CC(c2ccc(/C=C/C(=O)Nc3ccccc3N)cc2)C(c2nc3cc(F)ccc3[nH]2)C1 (stereo not shown) [Example 11-6]
